Here are results for 20 molecules from patent US20150315188A1, “COMPOUNDS AND METHODS FOR TREATMENT OF HYPERTENSION” (MEDIVATION TECHNOLOGIES, INC., priority 2012, published 2015).

Test [1] concerns the target T1, Human adrenergic α2B receptor (Homo sapiens, UniProt P18089).
T1 sequence (P18089 1-450): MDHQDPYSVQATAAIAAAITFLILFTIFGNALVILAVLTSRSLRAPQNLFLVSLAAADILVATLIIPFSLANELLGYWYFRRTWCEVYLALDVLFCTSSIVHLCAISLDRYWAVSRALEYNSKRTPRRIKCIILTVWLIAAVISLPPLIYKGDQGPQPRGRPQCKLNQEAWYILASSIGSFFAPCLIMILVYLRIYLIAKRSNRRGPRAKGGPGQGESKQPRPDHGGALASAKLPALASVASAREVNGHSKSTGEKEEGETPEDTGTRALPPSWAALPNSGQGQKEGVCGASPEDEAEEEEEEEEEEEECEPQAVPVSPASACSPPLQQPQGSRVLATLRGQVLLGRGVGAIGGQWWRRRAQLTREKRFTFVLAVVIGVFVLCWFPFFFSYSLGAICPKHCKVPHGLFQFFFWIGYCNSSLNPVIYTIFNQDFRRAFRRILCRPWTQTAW
Nature of the test: β-Arrestin GPCR functional assay, adrenergic α2B (Protocol B). The test is classed as cell-based. To be noted: for IC50: β-arrestin, antagonist vs nor-epinephrine EC80, read-out: IC50 Adrenergic α2B. The method in brief: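 CHO cells overexpressing human α2B (PathHunter β-arrestin), 12,000 per well, 24 h at 37° C; compounds in 1% DMSO 30 min, then 50 nM norepinephrine (EC80) 90 min at 37° C.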

The target of test [2] is T1, Human adrenergic α2B receptor. Nature of the test: Radioligand binding, adrenergic α2B (Protocol Group B). Also noted: purchased Milipore (Millipore). To be noted: for Percentage inhibition of ligand binding, Adrenergic α2B (10 nM) / inhibition at 0.01 µM: 10 nM compound; for Percentage inhibition of ligand binding, Adrenergic α2B (10 nM) / inhibition at 0.03 µM / inhibition at 0.1 µM / Ki / Percentage inhibition of ligand binding, Adrenergic α2B (30 nM) / Percentage inhibition of ligand binding, Adrenergic α2B (0.1 μM) / inhibition at 0.01 µM: Protocol Group B; for Percentage inhibition of ligand binding, Adrenergic α2B (10 nM): 0.01 µM; for inhibition at 0.03 µM / Percentage inhibition of ligand binding, Adrenergic α2B (30 nM): 30 nM compound; for inhibition at 0.03 µM: read-out: Percentage inhibition of ligand binding, Adrenergic α2B (30 nM); for inhibition at 0.1 µM / Percentage inhibition of ligand binding, Adrenergic α2B (0.1 μM): 0.1 μM compound; for inhibition at 0.1 µM: read-out: Percentage inhibition of ligand binding, Adrenergic α2B (0.1 μM); for Ki: estimated Ki, read-out: Ki α2B; for Percentage inhibition of ligand binding, Adrenergic α2B (30 nM): 0.03 µM; for inhibition at 0.01 µM: read-out: Percentage inhibition of ligand binding, Adrenergic α2B (10 nM). The method in brief:
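Compounds at various concentrations in 1% DMSO were tested on recombinant membranes in Tris-HCl pH 7.4 buffer containing MgCl2, CaCl2 and 0.2% BSA.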

As a reminder, the IC50 is the concentration that inhibits the measured activity by half. In general, inhibition refers to the change of the read-out against control, counted positive when it falls. One may read the Ki as the equilibrium dissociation constant of an inhibitor or competing ligand from its target.

In the case of `Cc1cc(C)c2c(c1)c1c(n2CC(C)(O)c2cccnc2)CCN2CCCC12` (single isomer, unassigned) [44a], the IC50 in test [1] amounted to 178 nM. In addition, in test [2], the “Percentage inhibition of ligand binding, Adrenergic α2B (10 nM)” value (“Percentage inhibition … (10 nM)” for short) is on record as 71%; the inhibition at 0.03 µM came out at 87%; the inhibition at 0.1 µM worked out at 95%; the inhibitory constant (Ki) was 2.2 nM.

For `Cc1cc(C)c2c(c1)c1c(n2CC(C)(O)c2cccnc2)CCN2CCCC12` (single isomer, unassigned) [44b], the IC50 in test [1] was found to be 10 nM. In test [2], the “Percentage inhibition … (10 nM)” value is 98%; the “Percentage inhibition of ligand binding, Adrenergic α2B (30 nM)” value (“Percentage inhibition … (30 nM)” below) is recorded as 98%; the Ki was 0.81 nM. In addition, in test [2] (0.1 µM), the “Percentage inhibition of ligand binding, Adrenergic α2B (0.1 μM)” value (“Percentage inhibition … (0.1 μM)” for short) is listed as 100%.

On to `Cc1ccc2c(c1)c1c(n2CC(C)(O)c2ccnc(F)c2)CCN2CCCC12` (single isomer, unassigned) [48a], for which, in test [1], the IC50 worked out at 20 nM. Besides, in test [2], the inhibition at 0.01 µM came out at 93%, the inhibition at 0.03 µM came out at 94%, the inhibition at 0.1 µM was found to be 94% and the Ki was 1.25 nM.

For the molecule `Cc1ccc2c(c1)c1c(n2CC(C)(O)c2ccnc(F)c2)CCN2CCCC12` (single isomer, unassigned) [48b], the IC50 in test [1] is 18 nM. Further, in test [2], the “Percentage inhibition … (10 nM)” value was determined as 92%; the “Percentage inhibition … (30 nM)” value turned out to be 93%; the Ki was 0.89 nM. Moreover, in test [2] (0.1 µM), the “Percentage inhibition … (0.1 μM)” value came to 91%.

As for `Cc1cc2c3c(n(CC(C)(O)c4ccncc4)c2cc1Cl)CCN1CCCC31` (single isomer, unassigned) [50b], the IC50 in test [1] turned out to be 12 nM. In addition, in test [2], the “Percentage inhibition … (10 nM)” value is reported as 98%; the “Percentage inhibition … (30 nM)” value stood at 100%; the “Percentage inhibition … (0.1 μM)” value came out at 100%; the Ki was 0.75 nM.

On to `CC(O)(Cn1c2c(c3cc(Cl)cc(F)c31)C1CCCN1CC2)c1ccncc1` (single isomer, unassigned) [52a], for which the IC50 in test [1] came out at 16 nM. Besides, in test [2], the inhibition at 0.01 µM worked out at 99%, the inhibition at 0.03 µM came to 100%, the inhibition at 0.1 µM worked out at 101% and the Ki is 0.84 nM.

In the case of `CC(O)(Cn1c2c(c3cc(Cl)cc(F)c31)C1CCCN1CC2)c1ccncc1` (single isomer, unassigned) [52b], in test [1], the half-maximal inhibitory concentration (IC50) amounted to 49 nM. Also, in test [2], the “Percentage inhibition … (10 nM)” value is listed as 94%; the “Percentage inhibition … (30 nM)” value came to 96%; the Ki is 0.71 nM. The “Percentage inhibition … (0.1 μM)” value in test [2] (0.1 µM) is 99%.

For `Cc1ccc2c(c1)c1c(n2CC(OCC2CCC2)c2ccncc2)CCN(C)C1` (single isomer, unassigned) [59a], the IC50 in test [1] came to 67 nM. In test [2], the inhibition at 0.01 µM was determined as 93%, the inhibition at 0.03 µM was 98%, the inhibition at 0.1 µM came to 100% and the Ki is 1 nM.

As for `Cc1cc(F)cc2c3c(n(CC(C)(O)c4cccnc4)c12)CCN1CCCC31` (single isomer, unassigned) [75a], in test [1], the IC50 is 17 nM. Moreover, in test [2], the “Percentage inhibition … (10 nM)” value is given as 8%; the “Percentage inhibition … (30 nM)” value came to 40%; the inhibition at 0.1 µM is 87%.

For the molecule `Cc1cc(F)c2c(c1)c1c(n2CC(C)(O)c2cccnc2)CCN2CCCC12` (single isomer, unassigned) [79b], the IC50 in test [1] is 34 nM. In addition, in test [2], the inhibition at 0.01 µM was 86%, the inhibition at 0.03 µM came to 95%, the inhibition at 0.1 µM stood at 97% and the Ki was 1.55 nM.

`Cc1cc(F)c2c(c1)c1c(n2CC(C)(O)c2ccncc2)CCN2CCCC12` (single isomer, unassigned) [81a]: the IC50 in test [1] stood at 16 nM. In test [2], the inhibition at 0.01 µM is 96%, the inhibition at 0.03 µM came to 99%, the inhibition at 0.1 µM turned out to be 99% and the Ki was 0.91 nM.

Regarding `Cc1cc(Cl)c2c(c1)c1c(n2CC(C)(O)c2ccncc2)CCN2CCCC12` (single isomer, unassigned) [91b], the IC50 in test [1] worked out at 18.7 nM. In addition, in test [2], the “Percentage inhibition … (10 nM)” value was determined as 95%; the “Percentage inhibition … (30 nM)” value came out at 97%; the Ki is 0.93 nM.

Consider `OC(Cn1c2c(c3cc(Cl)cc(F)c31)C1CCCN1CC2)c1ccncc1` (single isomer, unassigned) [135a], for which, in test [1], the IC50 came to 53.1 nM. Besides, in test [2], the inhibition at 0.01 µM was found to be 79%, the inhibition at 0.03 µM was 93% and the Ki is 2.95 nM.

`OC(Cn1c2c(c3cc(Cl)cc(F)c31)C1CCCN1CC2)c1ccncc1` (single isomer, unassigned) [135b]: the IC50 in test [1] amounted to 9.27 nM. Also, in test [2], the “Percentage inhibition … (10 nM)” value is reported as 84%; the “Percentage inhibition … (30 nM)” value is 83%; the Ki is 0.69 nM.

Regarding `Cc1cc(F)cc2c3c(n(CC(O)c4ccncc4)c12)CCN1CCCC31` (single isomer, unassigned) [136a], the IC50 in test [1] turned out to be 10.6 nM. In addition, in test [2], the inhibition at 0.01 µM was found to be 91%, the inhibition at 0.03 µM was 95% and the Ki was 1.5 nM.

Regarding `Cc1cc(F)c2c(c1)c1c(n2CC(O)c2ccncc2)CCN2CCCC12` (single isomer, unassigned) [137a], in test [1], the concentration for half-maximal inhibition (IC50) was 41.3 nM. In test [2], the “Percentage inhibition … (10 nM)” value was 83%; the inhibition at 0.03 µM amounted to 96%; the Ki is 1.5 nM.

For `Cc1cc(F)c2c(c1)c1c(n2CC(O)c2ccncc2)CCN2CCCC12` (single isomer, unassigned) [137b], the IC50 in test [1] was 6.57 nM. In test [2], the “Percentage inhibition … (10 nM)” value amounted to 106%; the “Percentage inhibition … (30 nM)” value turned out to be 107%; the Ki is 0.79 nM.

In the case of `Cc1ccc2c(c1)c1c(n2CC(OCC2CCC2)c2ccncc2)CCN2CCCC12` (single isomer, unassigned) [138a], the IC50 in test [1] came out at 17.2 nM. For the same molecule, in test [2], the inhibition at 0.01 µM amounted to 91%, the inhibition at 0.03 µM was determined as 90% and the Ki was 0.95 nM.

In the case of `Cc1ccc2c(c1)c1c(n2CC(OCC2CCC2)c2ccncc2)CCN2CCCC12` (single isomer, unassigned) [138b], the IC50 in test [1] came out at 20.6 nM. Moreover, in test [2], the “Percentage inhibition … (10 nM)” value was 82%; the “Percentage inhibition … (30 nM)” value was found to be 81%; the inhibitory constant (Ki) is 1.45 nM.

Regarding `Cc1ccc2c(c1)c1c(n2CC(O)c2ccncc2)CC[N+]2([O-])CCCC12` (stereo not drawn) [compound 23, 7-(2-hydroxy-2-(pyridin-4-yl)ethyl)-10-methyl-1,2,3,4,5,6,7,11c-octahydroindolizino[7,8-b]indole 4-oxide], the inhibition at 0.01 µM in test [1] (10 nM compound, nor-epinephrine at EC80 (50 nM), read-out: Percentage inhibition, Adrenergic α2B) was 10%. For the same molecule, the inhibition at 0.03 µM in test [1] (30 nM compound, nor-epinephrine at EC80 (50 nM), read-out: Percentage inhibition, Adrenergic α2B) is 12%. Further, the inhibition at 0.1 µM in test [1] (0.1 μM compound, nor-epinephrine at EC80 (50 nM), read-out: Percentage inhibition, Adrenergic α2B) was determined as 27%. Also, in test [1], the IC50 came to 382 nM. Besides, the inhibition at 0.0001 µM in test [2] (0.1 nM compound, concentration series, read-out: Percentage inhibition of ligand binding, Adrenergic α2B, 0.1 nM) came to 13%. Besides, the inhibition at 0.00032 µM in test [2] (0.32 nM compound, concentration series, read-out: Percentage inhibition of ligand binding, Adrenergic α2B, 0.32 nM) stood at 5%. Further, the inhibition at 0.001 µM in test [2] (1 nM compound, concentration series, read-out: Percentage inhibition of ligand binding, Adrenergic α2B, 1 nM) stood at 2%. In test [2] (3.2 nM compound, concentration series, read-out: Percentage inhibition of ligand binding, Adrenergic α2B, 3.2 nM), the inhibition at 0.0032 µM is 40%. Moreover, in test [2], the inhibition at 0.01 µM was determined as 65%, the inhibition at 0.03 µM came out at 88%, the inhibition at 0.1 µM was 92% and the Ki was 2.24 nM. The inhibition at 0.32 µM in test [2] (0.32 μM compound, concentration series, read-out: Percentage inhibition of ligand binding, Adrenergic α2B, 0.32 μM) was determined as 105%.
